# Laboratory results: publication PMC7687371, “Quantitative in Vitro to in Vivo Extrapolation (QIVIVE) for Predicting Reduced Anogenital Distance Produced by Anti-Androgenic Pesticides in a Rodent Model for Male Reproductive Disorders” (Environmental Health Perspectives, 2020)
# Experiments:
# androgen receptor (AR) = target: T1, androgen receptor (AR) (Homo sapiens, UniProt P10275); test: AR-EcoScreen androgen receptor transcriptional activation assay (AR antagonism); format: cell-based
# T1 construct: host or cells: AR-EcoScreen cells
# T1 sequence (P10275 1-920): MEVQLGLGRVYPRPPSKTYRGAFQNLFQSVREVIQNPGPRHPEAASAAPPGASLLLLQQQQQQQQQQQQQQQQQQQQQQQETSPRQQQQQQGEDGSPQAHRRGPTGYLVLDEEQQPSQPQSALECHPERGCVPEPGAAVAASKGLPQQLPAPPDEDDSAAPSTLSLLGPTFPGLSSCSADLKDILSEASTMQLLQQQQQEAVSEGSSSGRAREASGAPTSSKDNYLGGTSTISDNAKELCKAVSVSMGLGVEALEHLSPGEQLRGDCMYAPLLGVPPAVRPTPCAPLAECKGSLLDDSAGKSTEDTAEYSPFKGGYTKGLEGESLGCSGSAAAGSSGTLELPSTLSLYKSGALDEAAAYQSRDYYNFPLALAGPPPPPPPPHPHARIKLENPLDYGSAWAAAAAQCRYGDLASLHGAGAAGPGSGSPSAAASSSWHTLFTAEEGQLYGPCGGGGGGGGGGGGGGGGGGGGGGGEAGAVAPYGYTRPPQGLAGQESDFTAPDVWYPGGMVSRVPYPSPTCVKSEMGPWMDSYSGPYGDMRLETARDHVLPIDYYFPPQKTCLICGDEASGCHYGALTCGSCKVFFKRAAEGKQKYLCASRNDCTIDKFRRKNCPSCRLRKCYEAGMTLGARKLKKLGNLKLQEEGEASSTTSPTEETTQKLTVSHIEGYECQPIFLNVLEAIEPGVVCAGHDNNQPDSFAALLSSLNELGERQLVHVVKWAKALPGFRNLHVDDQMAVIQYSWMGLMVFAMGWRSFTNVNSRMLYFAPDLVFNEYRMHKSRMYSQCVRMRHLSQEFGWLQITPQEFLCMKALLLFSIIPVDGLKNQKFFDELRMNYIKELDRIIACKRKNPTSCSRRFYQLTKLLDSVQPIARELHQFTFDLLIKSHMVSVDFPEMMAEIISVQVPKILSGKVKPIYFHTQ
# Method: Experiments were run with three technical replicates and repeated three times. The mean value of technical replicates represents one biological replicate. AR-EcoScreen™ cells (JCRB1328; Japanese Collection of Research Bioresources) were grown in CellBIND® surface cell culture flasks (Corning Inc.) in growth medium consisting of Gibco® Dulbecco’s Modified Eagle’s Medium/F-12 (DMEM/F-12) Nutrient Mixture with L-glutamine and 4-(2-hydroxyethyl)-1-piperazineethanesulfonic acid (HEPES) and without phenol red supplemented with 5% fetal bovine serum (FBS), 1% penicillin-streptomycin, 200μg/mL Zeocin™ selection reagent, and 100μg/mL Hygromycin B (all reagents from Invitrogen, Life Technologies). The cells were incubated at 37°C in a humidified atmosphere of 5% carbon dioxide ( CO2 ) and 95% air. On the day before the experiment, cells were plated in white 96-well plates (Corning Inc.) at a density of 9,000 cells/well in assay medium consisting of Gibco® DMEM/F-12 Nutrient Mixture medium, 1% penicillin-streptomycin, with 5% dextran-coated charcoal-treated FBS (all reagents from Invitrogen, Life Technologies). On the following day, the medium was changed to assay medium containing the known AR agonist R1881 (Perkin Elmer) in 2-fold serial dilutions from 0.008 to 1 nM or the known AR antagonist hydroxyflutamide (CASRN 52806-53-8, Toronto Research Chemicals) in 3-fold serial dilutions from […] together with 0.1 nM R1881. […] The DMSO vehicle concentrations were kept constant in all wells (0.1%). Following approximately 20 h of exposure to test compounds firefly luminescence was measured in a luminometer (LUMIstar® Galaxy, BMG LABTECH) using Dual-Glo® Luciferase Reagent from the Dual-Glo® Luciferase Assay System from Promega. Cell viability was measured by Renilla luminescence using Dual-Glo® Stop & Glo® Reagent from the Dual-Glo® Luciferase Assay System.
# [1] = PBK model first-order kinetic parameters fitted to in vivo ADME data; design: species or system rat
# [2] = design: method as in U.S. EPA 2012; details: EPI Suite, experimental preferred over modeled; ref U.S. EPA 2012; cited from earlier work
# [3] = Fetal chemical exposure analysis (LC-QTOF) at GD21; format: in vivo, rat; details: fetal plasma GD21
# Method: Dams were decapitated under CO2 /oxygen anesthesia at GD21 and fetuses collected by cesarean section. Prior to decapitation of the fetuses, their BWs and AGDs were recorded. Blood from the dams was collected in heparinized vacutainer tubes, centrifuged at 125×g for 10 min at 4°C to prepare plasma, and, together with the amniotic fluid, frozen directly. Pooled trunk blood from all female and male fetuses of the same litter (female and male blood separately) was collected into heparin-treated capillary tubes approximately 90 min after dosing and the plasma was prepared and stored at −80°C until analysis for pesticides and selected metabolites by liquid chromatography quadrupole time-of-flight mass spectroscopy (LC-QTOF). Details about the LC-QTOF analyses are provided in “Method S1” in Supplemental Material. Amniotic fluid was collected from fetuses by pipetting, pooled within each litter, snap frozen in liquid nitrogen, and subsequently stored at −80 °C .
# Method S1. Chemical analysis of pesticide levels
# Acetonitrile, methanol, formic acid and 25% ammonium hydroxide, all of LC-MS grade and ethyl acetate were obtained from Sigma Aldrich, Schneldorf, Germany. Isolute bulk C-18 sorbent was obtained from Biotage, Sweden and was washed with acetonitrile and ethyl acetate and dried prior to use. Water was purified on a Milli Q system, Millipore Corporation, US.
# Pesticide standards were purchased from Dr. Ehrenstorfer (Augsburg, Germany), LGC-standards (Teddington, Middlesex, UK) and Sigma Aldrich (St. Louis, MO, USA). Acetonitrile used as solvents for the LC-QTOF was LiChrosolv Hypergrade. An ESI-L low concentration tuning mix from Agilent (Santa Clara, CA, USA) was used for tuning of the TOF. A reference solution was prepared containing Purine and HP0921 from Agilent (Santa Clara, CA, USA).
# Stock solutions of the pesticides were prepared at 1 mg/ml in acetonitrile, methanol or toluene.
# Standard mixtures containing the test compounds were prepared at a concentration of 10 µg/ml acetonitrile and used for preparation of calibration solutions. Isomers eluting very close to each other were avoided in these mixtures. […]
# added 200 µl of ice-cold acetonitrile in Eppendorf tubes. Internal standard was added in the form of 10 µl TPP (5 µg/ml) and the extraction was performed by whirl mixing. The tube was then stored on ice for 5 min and then centrifuged at 10,000 x g for 10 min at 4 °C (Ole Dich Instrument, Denmark). An aliquot of the supernatant was transferred to filter vials (0.45 µm) and analysed by […]
# Quality control samples were included in each analytical run. These were prepared using the same procedure as for the samples, though using amniotic fluid from untreated control Wistar rats extracted with acetonitrile containing three different levels of the relevant pesticide standards. The resulting spike levels were 0.04, 0.013 and 0.13 µg/ml. […]
# fluid or plasma from Sprague Dawley rats was transferred to an Eppendorf vial and added 150 µl of acetonitrile. 50 mg of isolute C-18 sorbent was added to the tube, which was shaken for 5 min, […]
# cooled to 4 °C and centrifuged at 10,000 x g for 10 min at 4 °C (Ole Dich Instrument makers, Denmark). 20 µl of the supernatant was transferred to an HPLC vial and mixed with 80 µl of 5%- 75% acetonitrile (this percentage was analyte dependent) prior to analysis by LC-MS.LC -QTOF […]
# Pesticide screening was carried out using a liquid chromatography-electrospray ionization-quadrupole-time of flight-mass spectrometer.
# The LC system was connected to a Bruker Daltonics, maXis qTOF mass spectrometer equipped with an electrospray ion source operated in positive ion mode (Bruker Daltonics, Bremen, Germany). The ion source settings were: nebulizer pressure 2 bars, drying gas flow 8 l/min, dry gas temperature 200 °C, capillary voltage 2500 V. The scan range was from 80 to 700 m/z with an acquisition rate of 2 Hz. Sodium formate dissolved in 50% 2-propanol was introduced in the ion […]
smiles,measurement,setting,value
"CONC(=O)Nc1ccc(Cl)c(Cl)c1 [DPMU, 1-(3,4-Dichlorophenyl)-3-methoxyurea]",IC50,androgen receptor (AR),4 µM
same,Urine excretion rate from kidney (L/h) KUrine,[1]; PBK model parameter,0.05 L/h
same,"Metabolism rate in liver, Metabolite",[1]; conversion of parent compound into active metabolite,0.22 L/h
same,"Metabolism rate in liver, Total (L/h) KMetab","[1]; metabolic clearance, PBK model parameter",0.02 L/h
same,log Kow,[2],2.70
same,Measured concentration in male fetuses,[3]; dams dosed linuron 25 mg/kg BW per day,5.0 µM
same,Measured concentration in male fetuses,[3]; dams dosed linuron 50 mg/kg BW per day,9.6 µM
same,Measured concentration in male fetuses,[3]; dams dosed linuron 75 mg/kg BW per day,21.4 µM
